Assay results as given in patent US8993554B2, “Tetrahydroquinoline derivatives useful as bromodomain inhibitors” (GlaxoSmithKline LLC, priority 2011, dated 2015).
Where a name gives a salt, the structure may show the parent alone.

test system: LPS induced IL-6 secretion from whole blood; assay: Measurement of LPS Induced IL-6 Secretion from Whole Blood; assay type: cell-based; settings: IL-6 by immunoassay, LPS 200 ng/ml, 24 hours
Protocol: Activation of monocytic cells by agonists of toll-like receptors such as bacterial lipopolysaccharide (LPS) results in production of key inflammatory mediators including IL-6. Such pathways are widely considered to be central to the pathophysiology of a range of auto-immune and inflammatory disorders.
Compounds to be tested are diluted to give a range of appropriate concentrations of which 1 μl of the diluted stocks is added to a 96 well plate. Following addition of whole blood (130 μl) the plates are incubated at 37 degrees (5% CO2) for 30 min before the addition of 10 μl of 2.8 ug/ml LPS, diluted in complete RPMI 1640 (final concentration=200 ng/ml), to give a total volume of 140 μl per well. After further incubation for 24 hours at 37 degrees, 140 μl of PBS are added to each well. The plates are sealed, shaken for 10 minutes and then centrifuged (2500 rpm×10 min). 100 μl of the supernatant are removed and IL-6 levels assayed by immunoassay (typically by MesoScale Discovery technology) either immediately or following storage at −20 degrees. Concentration response curves for each compound was generated from the data and an IC50 value was calculated.

IC50 | Compound
50.1 to 3160 nM | CC(=O)N1c2ccc(-c3ccc(CCC(=O)NCCO)cc3)cc2[C@H](Nc2ccc(C#N)cn2)C[C@@H]1C [Example 2, 3-(4-((2S,4R)-1-Acetyl-4-((5-cyanopyridin-2-yl)amino)-2-methyl-1,2,3,4-tetrahydroquinolin-6-yl)phenyl)-N-(2-hydroxyethyl)propanamide]
50.1 to 3160 nM | CC(=O)N1c2ccc(-c3ccc(CC(=O)NCCO)cc3)cc2[C@H](Nc2ccc(C#N)cn2)C[C@@H]1C [Example 3, 2-(4-((2S,4R)-1-Acetyl-4-((5-cyanopyridin-2-yl)amino)-2-methyl-1,2,3,4-tetrahydroquinolin-6-yl)phenyl)-N-(2-hydroxyethyl)acetamide]
50.1 to 3160 nM | CC(=O)N1c2ccc(-c3ccc(CC(=O)NCCN(C)C)cc3)cc2[C@H](Nc2ccc(C#N)cn2)C[C@@H]1C [Example 5, 2-(4-((2S,4R)-1-Acetyl-4-((5-cyanopyridin-2-yl)amino)-2-methyl-1,2,3,4-tetrahydroquinolin-6-yl)phenyl)-N-(2-(dimethylamino)ethyl)acetamide]
50.1 to 3160 nM | CC(=O)N1c2ccc(-c3ccc(C(=O)NCCO)cn3)cc2[C@H](Nc2ccc(C#N)cn2)C[C@@H]1C [Example 12, 6-((2S,4R)-1-acetyl-4-((5-cyanopyridin-2-yl)amino)-2-methyl-1,2,3,4-tetrahydroquinolin-6-yl)-N-(2-hydroxyethyl)nicotinamide]
50.1 to 3160 nM | CC(=O)N1c2ccc(-c3ccc(C(=O)NCCO)cc3)cc2[C@H](Nc2ccc(C#N)cn2)C[C@@H]1C [Example 14, 4-((2S,4R)-1-acetyl-4-((5-cyanopyridin-2-yl)amino)-2-methyl-1,2,3,4-tetrahydroquinolin-6-yl)-N-(2-hydroxyethyl)benzamide]
50.1 to 3160 nM | CC(=O)N1c2ccc(-c3ccc(C(=O)NC(CO)CO)cc3)cc2[C@H](Nc2ccc(C#N)cn2)C[C@@H]1C [Example 15, 4-((2S,4R)-1-acetyl-4-((5-cyanopyridin-2-yl)amino)-2-methyl-1,2,3,4-tetrahydroquinolin-6-yl)-N-(1,3-dihydroxypropan-2-yl)benzamide]
50.1 to 3160 nM | CC(=O)N1c2ccc(-c3ccc(C(=O)NCCN(C)C)cc3)cc2[C@H](Nc2ccc(C#N)cn2)C[C@@H]1C [Example 16, 4-((2S,4R)-1-acetyl-4-((5-cyanopyridin-2-yl)amino)-2-methyl-1,2,3,4-tetrahydroquinolin-6-yl)-N-(2-(dimethylamino)ethyl)benzamide dihydrochloride]
50.1 to 3160 nM | CC(=O)N1c2ccc(-c3ccc(C(=O)NCCO)cc3)cc2[C@H](Nc2ccccn2)C[C@@H]1C [Example 19, 4-((2S,4R)-1-acetyl-2-methyl-4-(pyridin-2-ylamino)-1,2,3,4-tetrahydroquinolin-6-yl)-N-(2-hydroxyethyl)benzamide]
50.1 to 3160 nM | CC(=O)N1c2ccc(-c3ccc(C(=O)NCCN(C)C)nc3)cc2[C@H](Nc2ccc(C#N)cn2)C[C@@H]1C [Example 28, 5-((2S,4R)-1-acetyl-4-((5-cyanopyridin-2-yl)amino)-2-methyl-1,2,3,4 tetrahydroquinolin-6-yl)-N-(2-(dimethylamino)ethyl)picolinamide]
50.1 to 3160 nM | CC(=O)N1c2ccc(-c3ccc(C(=O)NCCO)nc3)cc2[C@H](Nc2ccc(C#N)cn2)C[C@@H]1C [Example 29, 5-((2S,4R)-1-acetyl-4-((5-cyanopyridin-2-yl)amino)-2-methyl-1,2,3,4-tetrahydroquinolin-6-yl)-N-(2-hydroxyethyl)picolinamide]
50.1 to 3160 nM | CC(=O)N1c2ccc(-c3ccc(C(=O)NCCCO)nc3)cc2[C@H](Nc2ccc(C#N)cn2)C[C@@H]1C [Example 31, 5-((2S,4R)-1-acetyl-4-((5-cyanopyridin-2-yl)amino)-2-methyl-1,2,3,4-tetrahydroquinolin-6-yl)-N-(3-hydroxypropyl)picolinamide]
50.1 to 3160 nM | CC(=O)N1c2ccc(-c3ccc(C(=O)N[C@H](C)CO)nc3)cc2[C@H](Nc2ccc(C#N)cn2)C[C@@H]1C [Example 32, 5-((2S,4R)-1-acetyl-4-((5-cyanopyridin-2-yl)amino)-2-methyl-1,2,3,4-tetrahydroquinolin-6-yl)-N—((R)-1-hydroxypropan-2-yl)picolinamide]

Second part, the compound before the results:

Compound | IC50
CC(=O)N1c2ccc(-c3ccc(C(=O)NCCN)cc3)cc2[C@H](NC(=O)OC(C)C)C[C@@H]1C [Example 6, Isopropyl ((2S,4R)-1-acetyl-6-(4-((2-aminoethyl)carbamoyl)phenyl)-2-methyl-1,2,3,4-tetrahydroquinolin-4-yl)carbamate hydrochloride] | 50.1 to 3160 nM
CC(=O)N1c2ccc(-c3ccc(C(=O)NCCN(C)C)cc3)cc2[C@H](NC(=O)OC(C)C)C[C@@H]1C [Example 7, Isopropyl ((2S,4R)-1-acetyl-6-(4-((2-(dimethylamino)ethyl)carbamoyl)phenyl)-2-methyl-1,2,3,4-tetrahydroquinolin-4-yl)carbamate] | 50.1 to 3160 nM
CC(=O)N1c2ccc(-c3ccc(CC(=O)NCCN)cc3)cc2[C@H](NC(=O)OC(C)C)C[C@@H]1C [Example 9, Isopropyl ((2S,4R)-1-acetyl-6-(4-(2-((2-aminoethyl)amino)-2-oxoethyl)phenyl)-2-methyl-1,2,3,4-tetrahydroquinolin-4-yl)carbamate hydrochloride] | 50.1 to 3160 nM
CC(=O)N1c2ccc(-c3ccc(C(=O)NCCN(C)C)cn3)cc2[C@H](Nc2ccc(C#N)cn2)C[C@@H]1C [Example 10, 6-((2S,4R)-1-acetyl-4-((5-cyanopyridin-2-yl)amino)-2-methyl-1,2,3,4-tetrahydroquinolin-6-yl)-N-(2-(dimethylamino)ethyl)nicotinamide] | 50.1 to 3160 nM
CC(=O)N1c2ccc(-c3ccc(C(=O)NC(CO)CO)cn3)cc2[C@H](Nc2ccc(C#N)cn2)C[C@@H]1C [Example 11, 6-((2S,4R)-1-acetyl-4-((5-cyanopyridin-2-yl)amino)-2-methyl-1,2,3,4-tetrahydroquinolin-6-yl)-N-(1,3-dihydroxypropan-2-yl)nicotinamide] | 50.1 to 3160 nM
CC(=O)N1c2ccc(-c3ccc(C(=O)NCCN(C)C)cc3)cc2[C@H](Nc2ccccn2)C[C@@H]1C [Example 20, 4-((2S,4R)-1-acetyl-2-methyl-4-(pyridin-2-ylamino)-1,2,3,4-tetrahydroquinolin-6-yl)-N-(2-(dimethylamino)ethyl)benzamide] | 50.1 to 3160 nM
CC(=O)N1c2ccc(-c3ccc(C(=O)NC(CO)CO)cc3)cc2[C@H](Nc2ccccn2)C[C@@H]1C [Example 21, 4-((2S,4R)-1-acetyl-2-methyl-4-(pyridin-2-ylamino)-1,2,3,4-tetrahydroquinolin-6-yl)-N-(1,3-dihydroxypropan-2-yl)benzamide] | 50.1 to 3160 nM
CC(=O)N1c2ccc(-c3ccc(C(=O)NCCN)cc3)cc2[C@H](Nc2ccccn2)C[C@@H]1C [Example 22, 4-((2S,4R)-1-acetyl-2-methyl-4-(pyridin-2-ylamino)-1,2,3,4-tetrahydroquinolin-6-yl)-N-(2-aminoethyl)benzamide] | 50.1 to 3160 nM
CC(=O)N1c2ccc(-c3ccc(C(=O)NCCN(C)C)cn3)cc2[C@H](Nc2ccccn2)C[C@@H]1C [Example 23, 6-((2S,4R)-1-acetyl-2-methyl-4-(pyridin-2-ylamino)-1,2,3,4-tetrahydroquinolin-6-yl)-N-(2-(dimethylamino)ethyl)nicotinamide] | 50.1 to 3160 nM
CC(=O)N1c2ccc(-c3ccc(C(=O)NCCO)cn3)cc2[C@H](Nc2ccccn2)C[C@@H]1C [Example 24, 6-((2S,4R)-1-acetyl-2-methyl-4-(pyridin-2-ylamino)-1,2,3,4-tetrahydroquinolin-6-yl)-N-(2-hydroxyethyl)nicotinamide] | 50.1 to 3160 nM
CC(=O)N1c2ccc(-c3ccc(C(=O)NC(CO)CO)cn3)cc2[C@H](Nc2ccccn2)C[C@@H]1C [Example 25, 6-((2S,4R)-1-acetyl-2-methyl-4-(pyridin-2-ylamino)-1,2,3,4-tetrahydroquinolin-6-yl)-N-(1,3-dihydroxypropan-2-yl)nicotinamide] | 50.1 to 3160 nM
CC(=O)N1c2ccc(-c3ccc(C(=O)NC(CO)CO)nc3)cc2[C@H](Nc2ccc(C#N)cn2)C[C@@H]1C [Example 30, 5-((2S,4R)-1-acetyl-4-((5-cyanopyridin-2-yl)amino)-2-methyl-1,2,3,4tetrahydroquinolin-6-yl)-N-(1,3-dihydroxypropan-2-yl)picolinamide] | 50.1 to 3160 nM
CC(=O)N1c2ccc(-c3ccc(C(=O)N4CCN(C)CC4)nc3)cc2[C@H](Nc2ccc(C#N)cn2)C[C@@H]1C [Example 34, 6-(((2S,4R)-1-acetyl-2-methyl-6-(6-(4-methylpiperazine-1-carbonyl)pyridin-3-yl)-1,2,3,4-tetrahydroquinolin-4-yl)amino)nicotinonitrile] | 50.1 to 3160 nM
CC(=O)N1c2ccc(-c3ccc(C(=O)N4CC(N)C4)nc3)cc2[C@H](Nc2ccc(C#N)cn2)C[C@@H]1C [Example 37, 6-(((2S,4R)-1-acetyl-6-(6-(3-aminoazetidine-1-carbonyl)pyridin-3-yl)-2-methyl-1,2,3,4-tetrahydroquinolin-4-yl)amino)nicotinonitrile] | 50.1 to 3160 nM
CC(=O)N1c2ccc(-c3ccc(C(=O)NCCN(C)C)cc3)cc2[C@H](Nc2ccc(Cl)cc2)C[C@@H]1C [Example 38, 4-((2S,4R)-1-acetyl-4-((4-chlorophenyl)amino)-2-methyl-1,2,3,4-tetrahydroquinolin-6-yl)-N-(2-(dimethylamino)ethyl)benzamide] | 50.1 to 3160 nM
